In patent publication US10869493B2, “Reduced-sweetener products, flavoring mixtures for said reduced-sweetener products and process for the production of products of this type” (SYMRISE AG, priority 2009, dated 2020):

What was measured:
[1] = Stability of phyllodulcin content under elevated thermal stress (HPLC, UV detection); type: physicochemical; conditions: 100 mg/l phyllodulcin in aqueous phosphate buffer pH 9, stored at 40° C., compared to the same quantity as extract
Protocol: The exemplary extract was tested for stability under an elevated thermal stress in comparison to pure phyllodulcin. A solution of 100 mg/l of phyllodulcin and 1.38% of the exemplary ethanolic extract (corresponds to 100 mg of phyllodulcin) in an aqueous phosphate buffer, adjusted to pH 9, was tested immediately after preparation and then at regular weekly intervals for its phyllodulcin content. In this respect, an aliquot of the respective test solution was separated in an HPLC installation (RP phase) and quantified by UV detection compared to a calibration with pure phyllodulcin. The samples were stored at 40° C. in closed glass vessels to prevent evaporation. The phyllodulcin contents of the test solutions are plotted against time in FIG. 1.

[2] = test system: panelists; assay: Determination of the sucrose equivalence using a comparative series of sucrose concentrations in water; type: in vivo, human; conditions: concentration used in preparation C (1 ppm), method of Application example 1, first part
Description: The sucrose equivalence ratio of the sucrose equivalence of the concentration of the substances or substance of group (i) to the sucrose equivalence of the concentration of the substance or substances of group (ii) in the corresponding flavoring mixture (and in other mixtures, cf. further below), is established as follows: • 1. A comparative series of different sucrose concentrations in water is produced. Preferred concentrations are 0; 0.25; 0.5; 0.75; 1; 1.5; 2; 3; 4 and 5% by weight sucrose in water. Other concentrations, in particular higher concentrations, can optionally also be used for the comparative series. • 2. […] The determined sucrose equivalence is produced from the average of individual gradings by the individual panelists. • 6. The dilution ratio is then determined, using which solution 1 can be set at a sucrose equivalence of 2% by weight sucrose in water. […] It is of course sensible to have the determined dilution ratio tested once more by the panelists. • 7. Solution 2 (containing the compound(s) of group (ii)) is then diluted in the dilution ratio determined under 6. • 8. Subsequently, the dilute solution 2 is also tasted and compared to the sucrose test series, graded by the panelists and a corresponding sucrose equivalence value is determined (analogously to points 4. and 5.). • 9. […]

Structure (SMILES)	Decomposition of phyllodulcin over time (FIG. 1) [1]	sucrose equivalence alone in water [2]
COc1ccc([C@H]2Cc3cccc(O)c3C(=O)O2)cc1O [phyllodulcin]	decomposed more rapidly	
COc1ccc(CCC(=O)c2c(O)cc(O[C@@H]3O[C@H](CO)[C@@H](O)[C@H](O)[C@H]3O[C@@H]3O[C@@H](C)[C@H](O)[C@@H](O)[C@H]3O)cc2O)cc1O [neohesperidin dihydrochalcone]		approximately 0.5%
